PubChem BioAssay AID1919017 (Molecular Pharmacology Branch, DTP, NCI, 2023)

Tested on: SW1271 complex spheroids with HUVEC/MSC, growth, % test/control
Experiment: Anticancer human tumor SW1271 cell line growth inhibition [AhR];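 also: spheroids exposed to agents for 7 days before readout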
Details: for IC50: curve of first compound; for viability, T/C: stronger effect = lower value
In short: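 Spheroids combined tumor cells with HUVEC endothelial cells and human MSCs as stroma. AhR antagonists were paired with standard or investigational drugs, each dosed in half-log steps down from near clinical Cmax, or from 10 microM where Cmax was unknown.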

[1] = second compound 0.1 µM, first compound 0.0316 µM
[2] = second compound 0.1 µM, first compound 0.1 µM
[3] = second compound 0.1 µM, first compound 0.316 µM
[4] = second compound 0.1 µM, first compound 1 µM
[5] = second compound 0.1 µM, first compound 3.16 µM
[6] = second compound 0.1 µM, first compound 10 µM
[7] = second compound 0.316 µM, first compound 0.0316 µM
[8] = second compound 0.316 µM, first compound 0.1 µM
[9] = second compound 0.316 µM, first compound 0.316 µM
[10] = second compound 0.316 µM, first compound 1 µM
[11] = second compound 0.316 µM, first compound 3.16 µM
[12] = second compound 0.316 µM, first compound 10 µM
[13] = second compound 1 µM, first compound 0.0316 µM
[14] = second compound 1 µM, first compound 0.1 µM
[15] = second compound 1 µM, first compound 0.316 µM
[16] = second compound 1 µM, first compound 1 µM
[17] = second compound 1 µM, first compound 3.16 µM
[18] = second compound 1 µM, first compound 10 µM
[19] = second compound 3.16 µM, first compound 0.0316 µM
[20] = second compound 3.16 µM, first compound 0.1 µM
[21] = second compound 3.16 µM, first compound 0.316 µM
[22] = second compound 3.16 µM, first compound 1 µM
[23] = second compound 3.16 µM, first compound 3.16 µM
[24] = second compound 3.16 µM, first compound 10 µM
[25] = second compound 10 µM, first compound 0.0316 µM
[26] = second compound 10 µM, first compound 0.1 µM
[27] = second compound 10 µM, first compound 0.316 µM
[28] = second compound 10 µM, first compound 1 µM
[29] = second compound 10 µM, first compound 3.16 µM
[30] = second compound 10 µM, first compound 10 µM

## CC(C)c1c(-c2ccccc2)nc2c(C#N)c[nH]n2c1=O + Cc1cncc(-c2nc(NCCc3c[nH]c4ccccc34)c3ncn(C(C)C)c3n2)c1
Second compound 0.1 µM
  IC50: > 10 µM
Second compound 0.316 µM
  IC50: > 10 µM
Second compound 1 µM
  IC50: > 10 µM
Second compound 3.16 µM
  IC50: > 10 µM
Second compound 10 µM
  IC50: 0.472 µM
[1]
  viability, T/C: 104%
[2]
  viability, T/C: 104%
[3]
  viability, T/C: 96.4%
[4]
  viability, T/C: 111%
[5]
  viability, T/C: 102%
[6]
  viability, T/C: 108%
[7]
  viability, T/C: 85.2%
[8]
  viability, T/C: 121%
[9]
  viability, T/C: 100%
[10]
  viability, T/C: 96.3%
[11]
  viability, T/C: 95.9%
[12]
  viability, T/C: 106%
[13]
  viability, T/C: 89.5%
[14]
  viability, T/C: 111%
[15]
  viability, T/C: 87.6%
[16]
  viability, T/C: 80.2%
[17]
  viability, T/C: 87.7%
[18]
  viability, T/C: 82.5%
[19]
  viability, T/C: 90.1%
[20]
  viability, T/C: 93.7%
[21]
  viability, T/C: 109%
[22]
  viability, T/C: 91.5%
[23]
  viability, T/C: 99.2%
[24]
  viability, T/C: 99.9%
[25]
  viability, T/C: 53.4%
[26]
  viability, T/C: 58%
[27]
  viability, T/C: 48%
[28]
  viability, T/C: 48.2%
[29]
  viability, T/C: 44.8%
[30]
  viability, T/C: 50.4%

## COc1ccc([C@@H](O)c2cc(-c3ncnc4cc(N5CCOCC5)ccc34)c(F)cc2Cl)nn1 + Cc1cncc(-c2nc(NCCc3c[nH]c4ccccc34)c3ncn(C(C)C)c3n2)c1
Second compound 0.1 µM
  IC50: 1.85 µM
Second compound 0.316 µM
  IC50: 3.9 µM
Second compound 1 µM
  IC50: 2.89 µM
Second compound 3.16 µM
  IC50: 5.06 µM
Second compound 10 µM
  IC50: < 0.0316 µM
[1]
  viability, T/C: 82.7%
[2]
  viability, T/C: 93.6%
[3]
  viability, T/C: 83.2%
[4]
  viability, T/C: 56.7%
[5]
  viability, T/C: 47.9%
[6]
  viability, T/C: 36.7%
[7]
  viability, T/C: 87.3%
[8]
  viability, T/C: 96.7%
[9]
  viability, T/C: 75.1%
[10]
  viability, T/C: 72.7%
[11]
  viability, T/C: 52.2%
[12]
  viability, T/C: 36.9%
[13]
  viability, T/C: 91.3%
[14]
  viability, T/C: 87.3%
[15]
  viability, T/C: 93.3%
[16]
  viability, T/C: 68.2%
[17]
  viability, T/C: 50.8%
[18]
  viability, T/C: 36.3%
[19]
  viability, T/C: 81.6%
[20]
  viability, T/C: 99%
[21]
  viability, T/C: 81.9%
[22]
  viability, T/C: 70.1%
[23]
  viability, T/C: 55.8%
[24]
  viability, T/C: 43.2%
[25]
  viability, T/C: 45.5%
[26]
  viability, T/C: 43.3%
[27]
  viability, T/C: 41.5%
[28]
  viability, T/C: 36%
[29]
  viability, T/C: 22.1%
[30]
  viability, T/C: 18.1%
